Source: patent US8324190B2, “Treatment of proliferative disorders with amino-substituted (E)-2,6- dialkoxystyryl 4-substituted benzylsulfones” (Temple University—Of The Commonwealth System of Higher …, priority 2002, dated 2012)
pIC50: −log10 of the molar value. Where a name gives a salt, the structure may show the parent alone.

How the values were obtained:
Experiment in all cases: Tumor cell viability assay, Trypan blue exclusion
Assay type in all cases: cell-based
Conditions in all cases: cell viability after 96 hours
[1] = tested on: breast adenocarcinoma cell line BT-20
Method: (§1) BT-20 is an estrogen-unresponsive cell line. NIH/3T3 and HFL are normal murine and human fibroblasts, respectively. BT-20, DLD-1 and H157 were grown in Dulbecco's modified Eagle's medium (DMEM) containing 10% fetal bovine serum supplemented with penicillin and streptomycin. DU145 was cultured in RPMI with 10% fetal bovine serum containing penicillin and streptomycin. NIH3T3 and HFL cells were grown in DMEM containing 10% calf serum supplemented with penicillin and streptomycin. Cells were plated at density levels of 1.0×10^5 cells per well in six-well plates. Cell cultures were maintained at 37° C. in a humidified atmosphere of 5% CO2. Cells were treated with compounds of the invention at various concentrations. Cell viability was determined after 96 hours by the Trypan blue exclusion method. […] The number of viable cells remaining after 96 hours of treatment was determined using hemacytometer following trypan blue staining. The number of viable cells has been plotted as the percent of Vehicle treated (control) cells.

[2] = tested on: colorectal carcinoma cell line DLD-1
Method: as §1

[3] = tested on: non-small cell lung carcinoma cell line H157
Method: as §1

[4] = tested on: prostate carcinoma cell line DU-145
Method: as §1

Measured: pIC50

COc1cc(OC)c(/C=C/S(=O)(=O)Cc2ccc(OC)c(NC(=O)CCC(=O)O)c2)c(OC)c1 [Example 34, (E)-2,4,6-trimethoxystyryl-3-(succinamido)-4-methoxybenzyl-sulfone]
> 5.00: all assays above

COc1cc(OC)c(/C=C/S(=O)(=O)Cc2ccc(OC)c(NC(=O)CC(Cl)C(=O)O)c2)c(OC)c1 (stereo not drawn) [Example 35, (E)-2,4,6-trimethoxystyryl-3-(3-chlorosuccinamido)-4-methoxy-benzylsulfone]
> 5.00: all assays above

COc1cc(OC)c(/C=C/S(=O)(=O)Cc2ccc(OC)c(NC(=O)COC(=O)CCC(=O)O)c2)c(OC)c1 [Example 36, (E)-2,4,6-trimethoxystyryl-3-[3-(3-carboxypropanoyloxy)-acetamido]-4-methoxybenzylsulfone]
> 5.00: all assays above

COc1cc(OC)c(/C=C/S(=O)(=O)Cc2ccc(OC)c(NC(=O)CCCC(=O)O)c2)c(OC)c1 [Example 37, (E)-2,4,6-trimethoxystyryl-3-(glutaramido)-4-methoxybenzyl-sulfone]
> 5.00: all assays above

COc1cc(OC)c(/C=C/S(=O)(=O)Cc2ccc(OC)c(NC(=O)CP(=O)(O)O)c2)c(OC)c1 [Example 38, (E)-2,4,6-trimethoxystyryl-3-(phosphonatoacetamido)-4-methoxybenzylsulfone, disodium salt]
> 5.00: all assays above

COc1cc(OC)c(/C=C/S(=O)(=O)Cc2ccc(OC)c(NCCCC(=O)O)c2)c(OC)c1 [Example 39, (E)-2,4,6-trimethoxystyryl-3-(3-carboxypropylamino)-4-methoxybenzylsulfone]
> 5.00: all assays above

COc1cc(OC)c(/C=C/S(=O)(=O)Cc2ccc(OC)c(NCCC(=O)O)c2)c(OC)c1 [Example 40, (E)-2,4,6-trimethoxystyryl-3-(2-carboxyethylamino)-4-methoxy-benzylsulfone]
> 5.00: all assays above

COC(=O)Nc1cc(CS(=O)(=O)/C=C/c2c(OC)cc(OC)cc2OC)ccc1OC [Example 41, (E)-2,4,6-trimethoxystyryl-3-(methoxycarbonylamino)-4-methoxy-benzylsulfone]
> 5.00: all assays above

COc1ccc(S(=O)(=O)Nc2cc(CS(=O)(=O)/C=C/c3c(OC)cc(OC)cc3OC)ccc2OC)cc1 [Example 42, (E)-2,4,6-trimethoxystyryl-3-(4-methoxybenzenesulfamyl)-4-methoxybenzylsulfone]
> 5.00: all assays above

COc1cc(OC)c(/C=C/S(=O)(=O)Cc2ccc(OC)c(NC(=O)C(C)OC(C)=O)c2)c(OC)c1 (stereo not drawn) [Example 43, (E)-2,4,6-trimethoxystyryl-3-(2-acetoxypropionamido)-4-methoxybenzylsulfone]
> 5.00: all assays above

COC(=O)CCC(=O)Nc1cc(CS(=O)(=O)/C=C/c2c(OC)cc(OC)cc2OC)ccc1OC [Example 44, (E)-2,4,6-trimethoxystyryl-3-(methylsuccinamido)-4-methoxy-benzylsulfone]
> 5.00: all assays above

COc1cc(OC)c(/C=C/S(=O)(=O)Cc2ccc(OC)c(NC(=O)C(F)(F)C(F)(F)F)c2)c(OC)c1 [Example 46, (E)-2,4,6-trimethoxystyryl-3-(pentafluoropropionamido)-4-methoxybenzylsulfone]
> 5.00: all assays above
